Data on eight molecules can be found in publication PMC8456958, “Selective Bacterial Targeting and Infection‐Triggered Release of Antibiotic Colistin Conjugates” (Angewandte Chemie (International Ed. in English), 2021).

In brackets after ≈: the same amount, converted by molar mass. Bounds are passed on as bounds.

The assay relates to E. coli K12. It is filed as cell-based, Escherichia coli. As to conditions: for MIC with 10 mU mL^−1 Elastase / MIC with 100 mU mL^−1 Elastase / MIC without Elastase: Table 2, E. coli K12, conservative MIC readouts of at least three independent biological experiments. As to the method:
Determination of antibacterial activities by broth dilution assay
Bacterial suspensions at 5-6 x 10^5 CFU (1:1000 dilution of a bacterial suspension of OD600 = 1) in T-medium were incubated in volumes of 200 µl in sterile clear 96-well microtiter plates at 37 °C in a wet chamber with serial dilution of peptide-colistin constructs and controls (32 – 0.016 µM) for 18 h.
External neutrophil elastase was added at 10 mU/ml or 100 mU/ml to each well at the start of incubation, where indicated. After the incubation, the plate was placed for 5 min on a MTP shaker to generate homogenous bacterial suspensions. OD600 was then determined in a microplate reader. The wells with the lowest compound concentration without growth defined the MICs. […]
Figure S7. Heat plot of the growth of E. coli K12 and E. coli DSM 1116 in presence of 6. Rows A-D: E. coli K12; Rows E-H: E. coli DSM 1116; A + E colistin; B + F peptide-colistin construct 6; C + G peptide-colistin construct 6 + 10 mU/ml elastase; D + H bacteria without compounds. The numbers below the heatplot depict the concentration of colistin and peptides in µM. Conditions: T medium, incubation 20 h at 37 °C in wet chamber; inoculum: cultures at OD = 1.0 diluted 1:1000 (5-6 x 10^5 CFU/ml). […]
Figure S10. Heat plot of the growth of E. coli in presence of 48 and 49. Row A: E. coli K12 without added compounds; B colistin B; C peptide-colistin construct 49; D peptide-colistin construct 49 + 10 mU/ml elastase; E ElsaSub-colistin; F 48 with 10 mU elastase; G 4; H 4 with […]. The numbers depict the concentration of colistin and peptides in µM. Conditions: T medium, incubation 17.5 h at 37 °C in wet chamber; inoculum 5-6 x 10^5 CFU/ml. […]
with elastase 10 mU/ml pos-1-isomer (22) […]
with elastase 10 mU/ml pos-3-isomer (28) […]
with elastase 10 mU/ml pos-5-isomer (34) […]
with elastase 10 mU/ml pos-8-isomer (40) […]
with elastase 10 mU/ml pos-9-isomer (46)
Figure S11. Heat plot of the growth of E. coli in presence of positional isomers obtained by total chemical synthesis. Conditions: T medium, incubation for 20 h at 37 °C in wet chamber; inoculum 5-6 x 10^5 CFU/ml. Addition of neutrophil elastase at 10 and 100 mU/ml, as indicated. Concentrations of isomers stated below the heat plot in µg/ml. […]

Broadly, the MIC is the smallest concentration in the dilution series that meets the test's criterion for growth inhibition. As for “4-pentinoyl-ßAla-Ala-Ala-Pro-Val-colistin B (lariat or depsi) [Compound 48]”, the MIC (E. coli K12, T medium, 17.5 h at 37 °C (Figure S10), text does not say with or without elastase) stood at 16 µM.
For the molecule `CC[C@H](NC(=O)[C@@H]1C[C@@H]2CCCC[C@@H]2N1C(=O)[C@H](CCS(C)(=O)=O)NC(=O)[C@H](Cc1ccc(C(=O)c2ccccc2)cc1)NC(=O)CCc1cn(CCCC[C@@H](NC(=O)CCNC(=O)[C@@H](CCCNC(=N)N)NC(=O)[C@@H](CCCNC(=N)N)NC(=O)[C@@H](CC(N)=O)NC(=O)[C@@H](Cc2ccc(O)cc2)NC(=O)[C@@H](CCC(N)=O)NC(=O)[C@@H](CCSC)NC(=O)[C@@H](CCCNC(=N)N)NC(=O)[C@@H](CCCNC(=N)N)NC(=O)[C@@H](CCCCN)NC(=O)[C@@H](C)NC(=O)[C@@H](CCCNC(=N)N)NC(=O)CNC(=O)[C@H](N)[C@H](C)O)C(N)=O)nn1)C(=O)NCC[C@H](NC(=O)CCCCC(C)C)C(=O)N[C@H](C(=O)N[C@@H](CCN)C(=O)N[C@H]1CCNC(=O)[C@H]([C@@H](C)O)NC(=O)[C@H](CCN)NC(=O)[C@H](CCN)NC(=O)[C@H](CC(C)C)NC(=O)[C@@H](CC(C)C)NC(=O)[C@H](CCN)NC1=O)[C@@H](C)O` [Compound 22], the “MIC with 10 mU mL^−1 Elastase” value stood at 0.125 µM, the “MIC with 100 mU mL^−1 Elastase” value amounted to 0.063 µM and the “MIC without Elastase” value came out at 4 µM (≈ 15.2 µg/mL).
Take `CC[C@H](NC(=O)[C@@H]1C[C@@H]2CCCC[C@@H]2N1C(=O)[C@H](CCS(C)(=O)=O)NC(=O)[C@H](Cc1ccc(C(=O)c2ccccc2)cc1)NC(=O)CCc1cn(CCCC[C@@H](NC(=O)CCNC(=O)[C@@H](CCCNC(=N)N)NC(=O)[C@@H](CCCNC(=N)N)NC(=O)[C@@H](CC(N)=O)NC(=O)[C@@H](Cc2ccc(O)cc2)NC(=O)[C@@H](CCC(N)=O)NC(=O)[C@@H](CCSC)NC(=O)[C@@H](CCCNC(=N)N)NC(=O)[C@@H](CCCNC(=N)N)NC(=O)[C@@H](CCCCN)NC(=O)[C@@H](C)NC(=O)[C@@H](CCCNC(=N)N)NC(=O)CNC(=O)[C@H](N)[C@H](C)O)C(N)=O)nn1)C(=O)NCC[C@H](NC(=O)[C@@H](NC(=O)[C@H](CCN)NC(=O)CCCCC(C)C)[C@@H](C)O)C(=O)N[C@H]1CCNC(=O)[C@H]([C@@H](C)O)NC(=O)[C@H](CCN)NC(=O)[C@H](CCN)NC(=O)[C@H](CC(C)C)NC(=O)[C@@H](CC(C)C)NC(=O)[C@H](CCN)NC1=O` [Compound 28]: the “MIC with 10 mU mL^−1 Elastase” value was 0.25 µM, the “MIC with 100 mU mL^−1 Elastase” value was found to be 0.125 µM and the “MIC without Elastase” value worked out at 8 µM (≈ 30.4 µg/mL).
For `CC[C@H](NC(=O)[C@@H]1C[C@@H]2CCCC[C@@H]2N1C(=O)[C@H](CCS(C)(=O)=O)NC(=O)[C@H](Cc1ccc(C(=O)c2ccccc2)cc1)NC(=O)CCc1cn(CCCC[C@@H](NC(=O)CCNC(=O)[C@@H](CCCNC(=N)N)NC(=O)[C@@H](CCCNC(=N)N)NC(=O)[C@@H](CC(N)=O)NC(=O)[C@@H](Cc2ccc(O)cc2)NC(=O)[C@@H](CCC(N)=O)NC(=O)[C@@H](CCSC)NC(=O)[C@@H](CCCNC(=N)N)NC(=O)[C@@H](CCCNC(=N)N)NC(=O)[C@@H](CCCCN)NC(=O)[C@@H](C)NC(=O)[C@@H](CCCNC(=N)N)NC(=O)CNC(=O)[C@H](N)[C@H](C)O)C(N)=O)nn1)C(=O)NCC[C@@H]1NC(=O)[C@@H](NC(=O)[C@H](CCN)NC(=O)[C@@H](NC(=O)[C@H](CCN)NC(=O)CCCCC(C)C)[C@@H](C)O)CCNC(=O)[C@H]([C@@H](C)O)NC(=O)[C@H](CCN)NC(=O)[C@H](CCN)NC(=O)[C@H](CC(C)C)NC(=O)[C@@H](CC(C)C)NC1=O` [Compound 34], the “MIC with 10 mU mL^−1 Elastase” value worked out at 4 µM, the “MIC with 100 mU mL^−1 Elastase” value amounted to 4 µM and the “MIC without Elastase” value is more than 32 µM.
Turning to `CC[C@H](NC(=O)[C@@H]1C[C@@H]2CCCC[C@@H]2N1C(=O)[C@H](CCS(C)(=O)=O)NC(=O)[C@H](Cc1ccc(C(=O)c2ccccc2)cc1)NC(=O)CCc1cn(CCCC[C@@H](NC(=O)CCNC(=O)[C@@H](CCCNC(=N)N)NC(=O)[C@@H](CCCNC(=N)N)NC(=O)[C@@H](CC(N)=O)NC(=O)[C@@H](Cc2ccc(O)cc2)NC(=O)[C@@H](CCC(N)=O)NC(=O)[C@@H](CCSC)NC(=O)[C@@H](CCCNC(=N)N)NC(=O)[C@@H](CCCNC(=N)N)NC(=O)[C@@H](CCCCN)NC(=O)[C@@H](C)NC(=O)[C@@H](CCCNC(=N)N)NC(=O)CNC(=O)[C@H](N)[C@H](C)O)C(N)=O)nn1)C(=O)NCC[C@@H]1NC(=O)[C@H](CC(C)C)NC(=O)[C@@H](CC(C)C)NC(=O)[C@H](CCN)NC(=O)[C@@H](NC(=O)[C@H](CCN)NC(=O)[C@@H](NC(=O)[C@H](CCN)NC(=O)CCCCC(C)C)[C@@H](C)O)CCNC(=O)[C@H]([C@@H](C)O)NC(=O)[C@H](CCN)NC1=O` [Compound 40], the “MIC with 10 mU mL^−1 Elastase” value was more than 32 µM, the “MIC with 100 mU mL^−1 Elastase” value turned out to be 32 µM and the “MIC without Elastase” value is more than 32 µM.
As to `CC[C@H](NC(=O)[C@@H]1C[C@@H]2CCCC[C@@H]2N1C(=O)[C@H](CCS(C)(=O)=O)NC(=O)[C@H](Cc1ccc(C(=O)c2ccccc2)cc1)NC(=O)CCc1cn(CCCC[C@@H](NC(=O)CCNC(=O)[C@@H](CCCNC(=N)N)NC(=O)[C@@H](CCCNC(=N)N)NC(=O)[C@@H](CC(N)=O)NC(=O)[C@@H](Cc2ccc(O)cc2)NC(=O)[C@@H](CCC(N)=O)NC(=O)[C@@H](CCSC)NC(=O)[C@@H](CCCNC(=N)N)NC(=O)[C@@H](CCCNC(=N)N)NC(=O)[C@@H](CCCCN)NC(=O)[C@@H](C)NC(=O)[C@@H](CCCNC(=N)N)NC(=O)CNC(=O)[C@H](N)[C@H](C)O)C(N)=O)nn1)C(=O)NCC[C@@H]1NC(=O)[C@H](CCN)NC(=O)[C@H](CC(C)C)NC(=O)[C@@H](CC(C)C)NC(=O)[C@H](CCN)NC(=O)[C@@H](NC(=O)[C@H](CCN)NC(=O)[C@@H](NC(=O)[C@H](CCN)NC(=O)CCCCC(C)C)[C@@H](C)O)CCNC(=O)[C@H]([C@@H](C)O)NC1=O` [Compound 46], the “MIC with 10 mU mL^−1 Elastase” value is 32 µM, the “MIC with 100 mU mL^−1 Elastase” value came to 8 µM and the “MIC without Elastase” value was more than 32 µM.
On to “(all-D) T-G-R-A-K-R-R-M-Q-Y-N-R-R-ßAla-norleucinamide(1H-1,2,3-triazol-4-yl)propionyl-ßAla-L-Ala-L-Ala-L-Pro-L-Val-colistin B [Compound 49]”, for which the “antimicrobial activity (MIC) in the presence of neutrophil elastase” value (E. coli K12, 10 mU/ml elastase, T medium, 17.5 h at 37 °C (Figure S10)) was more than 32 µM. Besides, for the setting “E. coli K12, T medium, 17.5 h at 37 °C (Figure S10)”, the “antimicrobial activity (MIC) in the absence of neutrophil elastase” value was more than 32 µM.
Turning to “Neutrophil elastase: Neutrophil Elastase (human), affinity purified, USBiological”, under “elastase alone, two strains of E. coli (K12 and DSM 1116)”, the “antimicrobial activity of neutrophil elastase alone” value is reported as “did not display any antimicrobial activity”.
